The results in this text go back to patent US7598377B2, “Inhibition of phosphoinositide 3-kinase β” (AstraZeneca AB, priority 2002, dated 2009).

A value given as a limit tells only on which side of the number the result lay.

Experiment [1] deals with T1, p110δ-PI3K (Homo sapiens, UniProt O00329).
T1 construct: from tissue; host or cells: washed platelets (lysate, immunoprecipitated with anti-p110δ antibody)
Put plainly: In vitro enzyme assay, p110δ immunoprecipitated from platelet lysate (Biological Example 1). The class given is biochemical. The following applies: Table I; read-out: inhibitory concentration, delta. The protocol: (§1) For each immunoprecipitation, 1 mg of lysate was incubated with an anti-p110α (1 μg), anti-p110β (1 μg), anti-p110δ (1 μg) or anti-PI4 kinase antibody (2-5 μg) and 50 μl of a 50% slurry of protein A beads overnight at 4° C. […] For PI4 kinase assays, protein A beads-immune complexes were also washed twice with lysis buffer, prior to two washes with 1× PI4 kinase assay buffer (20 mM Hepes, pH 7.5, 10 mM MgCl2, 0.3% Triton X-100) and the addition of other assay constituents, as described above. All reactions were terminated by the addition of 100 μl 1 M HCl, 200 μl choloroform/methanol (1:1) and 500 μl 2 M KCl and lipids extracted by centrifugation at 15,000×g for 2 minutes. The production of PI3 or PI4 kinase lipid products, PtdIns(3)P and PtdIns(4)P, were confirmed through TLC analysis. The lipid spots were then removed from the TLC plate and the level of radioactivity quantified to accurately determine the level of PtdIns(3)P/PtdIns(4)P production.

Experiment [2] has as its target T2, p110β-PI3K (Homo sapiens, UniProt P42338).
T2 construct: The α and β isoforms of the PI3K were immunoprecipitated from a platelet lysate; from tissue; host or cells: washed platelets (lysate, immunoprecipitated with anti-p110β antibody)
Description: In vitro enzyme assay, p110β immunoprecipitated from platelet lysate (Biological Example 1). The class given is biochemical. The following applies: Table I; for IC50: read-out: inhibitory concentration, beta. The protocol: as §1, with “The production of PI3 or PI4 kinase lipid products, PtdIns(3)P and PtdIns(4)P, were confirmed through TLC analysis.” left out

Experiment [3] addresses T3, p110α-PI3K (Homo sapiens, UniProt P42336).
T3 construct: The α and β isoforms of the PI3K were immunoprecipitated from a platelet lysate; from tissue; host or cells: washed platelets (lysate, immunoprecipitated with anti-p110α antibody)
Description: In vitro enzyme assay, p110α immunoprecipitated from platelet lysate (Biological Example 1). The class given is biochemical. The following applies: Table I; read-out: inhibitory concentration, alpha. The procedure:
as §1

Experiment [4] has as its target p110γ-PI3K (Homo sapiens, UniProt P48736). Description: In vitro enzyme assay, p110γ recombinant protein (Biological Example 1). The class given is biochemical. The following applies: Table I; read-out: inhibitory concentration, gamma. The source says: Reactions were terminated and lipid products analysed as described above for the other PI 3-kinase isoforms assays.

In experiment [5] the test system is platelets on immobilized vWf. Description: In vitro flow studies: platelet calcium flux and adhesion on immobilized vWf. The experiment is classed as cell-based. As to conditions: vWf matrix, shear rate gradient up to 10,000 s^−1 over 1 s. The protocol: The use of an in vitro-flow based adhesion assay enables us to simultaneously analyze platelet adhesion dynamics and activation (by monitoring cytosolic calcium flux) on immobilized von Willebrand factor (vWf). Briefly, isolated platelets are perfused through vWf (100 μg/ml) coated microcapillary tubes and analysis of cytosolic calcium flux conducted in real-time by confocal microscopy.
Washed platelets (1.5×10^9) suspended in PWB were incubated with the calcium indicator dyes, Oregon Green 488 BAPTA-1, AM (1 μM) and Fura Red, AM (1.25 μM), for 30 min at 37° C. Platelets were washed twice with PWB prior to being resuspended in Tyrode's buffer containing 1 mM calcium.
For static adhesion assays, platelets were allowed to settle on the surface of vWf-coated coverslips for 30 min at 37° C. For flow assays, platelets were either perfused over a vWf-coated microcapillary tube at a constant shear rate of 600, 1800 or 10,000 s^−1 or allowed to settle on the surface of a vWf-coated microcapillary tube prior to being accelerated through a shear gradient of 10,000 s^−1 over a 1 s interval. Real time platelet calcium flux in individual platelets was monitored at 1 s intervals over the 30 min incubation period or at 0.586 s intervals for up to 175 s for static and flow-based assays, respectively.
For orientation: Calcium flux is commonly read through the fluorescence of an indicator in the cells.

T1 sequence (O00329 whole entry): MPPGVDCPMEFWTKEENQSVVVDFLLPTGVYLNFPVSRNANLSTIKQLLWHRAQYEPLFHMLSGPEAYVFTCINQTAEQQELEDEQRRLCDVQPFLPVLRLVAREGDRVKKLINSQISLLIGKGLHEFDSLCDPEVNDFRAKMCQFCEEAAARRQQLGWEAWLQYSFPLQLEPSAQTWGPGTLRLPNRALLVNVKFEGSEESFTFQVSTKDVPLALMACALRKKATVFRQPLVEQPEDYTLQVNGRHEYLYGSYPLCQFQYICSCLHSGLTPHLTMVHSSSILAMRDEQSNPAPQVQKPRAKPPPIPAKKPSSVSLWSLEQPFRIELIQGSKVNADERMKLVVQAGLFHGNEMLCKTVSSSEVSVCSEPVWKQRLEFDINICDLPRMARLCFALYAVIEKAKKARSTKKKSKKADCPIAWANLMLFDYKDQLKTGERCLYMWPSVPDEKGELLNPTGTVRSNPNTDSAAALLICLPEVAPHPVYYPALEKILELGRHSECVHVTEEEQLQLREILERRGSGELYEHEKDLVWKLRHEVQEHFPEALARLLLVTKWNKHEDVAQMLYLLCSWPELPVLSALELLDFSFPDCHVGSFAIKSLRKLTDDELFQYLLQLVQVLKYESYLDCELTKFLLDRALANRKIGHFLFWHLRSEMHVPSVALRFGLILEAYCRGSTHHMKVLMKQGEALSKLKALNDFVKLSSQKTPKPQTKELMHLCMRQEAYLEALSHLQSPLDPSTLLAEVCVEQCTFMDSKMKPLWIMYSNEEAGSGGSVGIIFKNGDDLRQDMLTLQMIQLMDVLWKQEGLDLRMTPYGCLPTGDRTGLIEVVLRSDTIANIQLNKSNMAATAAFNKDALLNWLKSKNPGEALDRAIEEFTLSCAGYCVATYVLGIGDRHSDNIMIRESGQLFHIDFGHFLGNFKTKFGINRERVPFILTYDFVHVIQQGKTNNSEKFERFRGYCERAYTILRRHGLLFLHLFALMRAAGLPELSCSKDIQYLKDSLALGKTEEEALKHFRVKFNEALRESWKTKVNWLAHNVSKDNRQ
T1 sequence (P27986 whole entry partner): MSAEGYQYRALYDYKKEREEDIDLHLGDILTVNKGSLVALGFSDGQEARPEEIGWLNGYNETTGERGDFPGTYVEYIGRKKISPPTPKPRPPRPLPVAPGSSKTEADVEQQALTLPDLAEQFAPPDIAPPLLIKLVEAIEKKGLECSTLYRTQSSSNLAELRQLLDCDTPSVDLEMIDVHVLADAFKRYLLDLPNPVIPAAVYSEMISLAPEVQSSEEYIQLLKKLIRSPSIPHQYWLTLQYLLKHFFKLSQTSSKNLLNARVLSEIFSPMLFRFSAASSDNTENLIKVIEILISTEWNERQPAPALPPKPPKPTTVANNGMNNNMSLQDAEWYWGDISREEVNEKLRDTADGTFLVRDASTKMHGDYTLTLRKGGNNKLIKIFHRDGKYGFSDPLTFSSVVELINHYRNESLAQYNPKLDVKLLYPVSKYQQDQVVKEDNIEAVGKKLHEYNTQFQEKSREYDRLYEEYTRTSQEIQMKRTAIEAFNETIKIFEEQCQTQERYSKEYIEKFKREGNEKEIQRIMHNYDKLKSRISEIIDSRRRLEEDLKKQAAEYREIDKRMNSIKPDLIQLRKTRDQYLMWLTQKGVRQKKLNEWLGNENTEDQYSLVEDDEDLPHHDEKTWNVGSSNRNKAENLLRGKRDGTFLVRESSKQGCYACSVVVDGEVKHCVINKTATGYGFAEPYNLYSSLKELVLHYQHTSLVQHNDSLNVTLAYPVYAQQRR
T2 sequence (P42338 whole entry, canonical isoform): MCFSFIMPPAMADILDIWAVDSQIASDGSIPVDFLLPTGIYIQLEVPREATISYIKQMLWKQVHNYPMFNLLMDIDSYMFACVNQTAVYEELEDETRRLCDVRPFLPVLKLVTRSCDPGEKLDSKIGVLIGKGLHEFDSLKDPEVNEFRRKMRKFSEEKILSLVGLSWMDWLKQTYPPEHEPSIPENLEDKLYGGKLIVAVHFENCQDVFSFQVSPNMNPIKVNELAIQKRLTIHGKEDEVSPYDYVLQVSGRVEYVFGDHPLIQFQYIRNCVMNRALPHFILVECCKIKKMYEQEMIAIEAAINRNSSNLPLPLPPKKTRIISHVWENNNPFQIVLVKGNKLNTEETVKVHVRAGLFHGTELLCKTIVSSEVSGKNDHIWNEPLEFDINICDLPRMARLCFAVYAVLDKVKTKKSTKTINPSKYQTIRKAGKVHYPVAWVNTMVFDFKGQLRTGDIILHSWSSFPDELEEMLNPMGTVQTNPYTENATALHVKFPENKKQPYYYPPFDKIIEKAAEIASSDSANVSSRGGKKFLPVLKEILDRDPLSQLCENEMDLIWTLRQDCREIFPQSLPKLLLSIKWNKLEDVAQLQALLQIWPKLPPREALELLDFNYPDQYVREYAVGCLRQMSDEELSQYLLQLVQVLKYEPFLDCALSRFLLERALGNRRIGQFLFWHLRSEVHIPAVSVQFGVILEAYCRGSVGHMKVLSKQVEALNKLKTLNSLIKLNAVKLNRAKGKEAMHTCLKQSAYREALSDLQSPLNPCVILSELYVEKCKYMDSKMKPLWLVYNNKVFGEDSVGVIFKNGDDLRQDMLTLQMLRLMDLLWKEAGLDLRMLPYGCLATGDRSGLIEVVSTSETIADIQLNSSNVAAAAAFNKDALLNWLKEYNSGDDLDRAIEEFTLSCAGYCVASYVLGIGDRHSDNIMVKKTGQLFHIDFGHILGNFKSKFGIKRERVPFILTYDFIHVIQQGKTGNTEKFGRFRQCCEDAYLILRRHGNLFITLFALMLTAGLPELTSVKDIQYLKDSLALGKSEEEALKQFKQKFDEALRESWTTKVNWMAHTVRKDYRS
T2 sequence (P27986 whole entry partner, canonical isoform): as the sequence (P27986 whole entry partner) above
T3 sequence (P42336 whole entry, canonical isoform): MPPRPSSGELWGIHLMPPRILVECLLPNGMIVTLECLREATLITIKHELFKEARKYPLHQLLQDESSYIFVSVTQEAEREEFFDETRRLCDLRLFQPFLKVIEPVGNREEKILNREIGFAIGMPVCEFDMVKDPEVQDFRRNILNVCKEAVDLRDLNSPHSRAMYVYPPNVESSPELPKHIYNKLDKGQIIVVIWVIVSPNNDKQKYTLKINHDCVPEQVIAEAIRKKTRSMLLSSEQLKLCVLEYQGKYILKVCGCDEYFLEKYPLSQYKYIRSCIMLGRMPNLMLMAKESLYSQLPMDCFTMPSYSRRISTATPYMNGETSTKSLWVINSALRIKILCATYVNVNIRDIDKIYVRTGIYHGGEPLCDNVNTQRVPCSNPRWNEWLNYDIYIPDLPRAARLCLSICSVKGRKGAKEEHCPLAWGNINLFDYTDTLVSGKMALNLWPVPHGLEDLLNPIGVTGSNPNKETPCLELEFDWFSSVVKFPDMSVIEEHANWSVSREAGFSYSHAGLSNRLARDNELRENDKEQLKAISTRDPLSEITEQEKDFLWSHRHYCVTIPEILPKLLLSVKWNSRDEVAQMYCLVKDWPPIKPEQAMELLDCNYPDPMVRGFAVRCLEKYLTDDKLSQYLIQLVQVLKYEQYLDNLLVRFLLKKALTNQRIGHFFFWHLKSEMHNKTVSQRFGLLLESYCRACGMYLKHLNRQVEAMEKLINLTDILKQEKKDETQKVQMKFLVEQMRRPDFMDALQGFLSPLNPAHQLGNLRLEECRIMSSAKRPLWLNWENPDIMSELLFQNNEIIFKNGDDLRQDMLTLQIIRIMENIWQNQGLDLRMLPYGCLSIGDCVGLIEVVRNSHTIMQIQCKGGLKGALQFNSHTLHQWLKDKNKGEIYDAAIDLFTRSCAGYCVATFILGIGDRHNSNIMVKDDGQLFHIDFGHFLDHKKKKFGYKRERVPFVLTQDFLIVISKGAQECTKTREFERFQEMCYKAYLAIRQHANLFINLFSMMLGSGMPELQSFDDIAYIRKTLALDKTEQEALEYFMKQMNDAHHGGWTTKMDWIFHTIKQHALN
T3 sequence (P27986 whole entry partner, canonical isoform): as the sequence (P27986 whole entry partner) above
Sequence of p110γ-PI3K (P48736 whole entry, canonical isoform): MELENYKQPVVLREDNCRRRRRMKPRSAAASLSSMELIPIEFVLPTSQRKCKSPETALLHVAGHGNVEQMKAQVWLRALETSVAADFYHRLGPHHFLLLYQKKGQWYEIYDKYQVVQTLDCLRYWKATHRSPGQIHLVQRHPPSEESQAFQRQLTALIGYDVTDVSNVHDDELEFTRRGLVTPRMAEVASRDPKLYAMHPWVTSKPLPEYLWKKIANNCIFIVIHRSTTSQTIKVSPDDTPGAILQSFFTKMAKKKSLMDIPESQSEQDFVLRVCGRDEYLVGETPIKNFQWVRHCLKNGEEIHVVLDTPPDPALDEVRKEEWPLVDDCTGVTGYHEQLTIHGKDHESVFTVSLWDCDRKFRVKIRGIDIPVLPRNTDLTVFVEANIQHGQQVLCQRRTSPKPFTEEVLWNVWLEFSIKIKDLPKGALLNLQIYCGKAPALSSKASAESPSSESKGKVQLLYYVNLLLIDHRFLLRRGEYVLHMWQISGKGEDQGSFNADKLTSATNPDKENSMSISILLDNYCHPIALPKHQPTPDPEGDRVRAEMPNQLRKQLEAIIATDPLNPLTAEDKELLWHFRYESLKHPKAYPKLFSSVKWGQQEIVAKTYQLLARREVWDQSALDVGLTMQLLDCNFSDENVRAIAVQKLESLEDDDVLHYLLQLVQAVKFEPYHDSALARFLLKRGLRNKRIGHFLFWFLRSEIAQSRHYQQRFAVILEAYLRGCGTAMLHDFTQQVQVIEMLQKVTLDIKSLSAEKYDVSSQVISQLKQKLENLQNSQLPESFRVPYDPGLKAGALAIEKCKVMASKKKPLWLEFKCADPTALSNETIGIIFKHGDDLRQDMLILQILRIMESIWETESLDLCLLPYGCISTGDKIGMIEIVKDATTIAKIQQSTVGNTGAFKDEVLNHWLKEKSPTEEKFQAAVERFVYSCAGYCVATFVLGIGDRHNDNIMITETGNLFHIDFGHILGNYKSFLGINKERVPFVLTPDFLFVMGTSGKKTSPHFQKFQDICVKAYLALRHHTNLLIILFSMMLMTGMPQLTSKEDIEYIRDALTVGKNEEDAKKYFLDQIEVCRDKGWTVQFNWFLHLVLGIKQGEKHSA

Regarding `Cc1cc(CN(C)c2ccccc2)c2nc(N3CCOCC3)cc(=O)n2c1` (racemic) [TGX-195, (±)-7-methyl-9-{[methyl(phenyl)amino]methyl}-2-morpholin-4-yl-pyrido[1,2-a]pyrimidin-4-one], the IC50 in experiment [1] was 0.5 µM; in experiment [2], 0.02 µM; in experiment [3], > 5 µM; in experiment [4] it was > 5 µM. In addition, in experiment [2], the “Ratio δ/β” value was 25.00.
As for `Cc1cc(C(C)Nc2cc(F)cc(F)c2)c2nc(N3CCOCC3)cc(=O)n2c1` (racemic) [TGX-239, (±)-9-[1-(3,5-difluorophenylamino)ethyl]-7-methyl-2-morpholin-4-yl-pyrido[1,2-a]pyrimidin-4-one], the IC50 in experiment [1] is 0.08 µM; in experiment [2], 0.007 µM; in experiment [3], > 5 µM; in experiment [4] it was > 5 µM. For the same compound, the “Ratio δ/β” value in experiment [2] was 11.43.
Take `Cc1cc(C(C)Nc2ccc(Cl)cc2)c2nc(N3CCOCC3)cc(=O)n2c1` (racemic) [TGX-243, (±)-9-[1-(4-chlorophenylamino)ethyl]-7-methyl-2-morpholin-4-yl-pyrido[1,2-a]pyrimidin-4-one]: the IC50 in experiment [1] is 2 µM; in experiment [2], 0.05 µM; in experiment [3] it was > 5 µM; in experiment [4], > 5 µM. Besides, the “Ratio δ/β” value in experiment [2] is on record as 40.00.
Turning to `Cc1cc(C(C)Nc2ccc(Cl)c(Cl)c2)c2nc(N3CCOCC3)cc(=O)n2c1` (racemic) [TGX-244, (±)-9-[1-(3,4-dichlorophenylamino)ethyl]-7-methyl-2-morpholin-4-yl-pyrido[1,2-a]pyrimidin-4-one], the IC50 in experiment [1] was 1 µM; in experiment [2], 0.05 µM; in experiment [3], > 5 µM; in experiment [4] it was > 5 µM. The “Ratio δ/β” value in experiment [2] turned out to be 20.00.
In the case of `Cc1cc(C(C)Nc2cccc(Cl)c2)c2nc(N3CCOCC3)cc(=O)n2c1` (racemic) [TGX-248, (±)-9-[1-(3-chlorophenylamino)ethyl]-7-methyl-2-morpholin-4-yl-pyrido[1,2-a]pyrimidin-4-one], the IC50 in experiment [1] was 0.1 µM; in experiment [2], 0.01 µM; in experiment [3], > 5 µM; in experiment [4], > 5 µM. Further, the “Ratio δ/β” value in experiment [2] is on record as 10.00.
Consider `Cc1cccc(NC(C)c2cc(C)cn3c(=O)cc(N4CCOCC4)nc23)c1` (racemic) [TGX-262, (±)-7-methyl-9-[1-(3-methylphenylamino)ethyl]-2-morpholin-4-yl-pyrido[1,2-a]pyrimidin-4-one], for which the IC50 in experiment [1] is 1 µM; in experiment [2] it was 0.05 µM; in experiment [3], > 5 µM; in experiment [4], > 5 µM. For the same compound, the “Ratio δ/β” value in experiment [2] is on record as 20.00.
For `Cc1cc(C(C)Nc2cccc(C(F)(F)F)c2)c2nc(N3CCOCC3)cc(=O)n2c1` (racemic) [TGX-264, (±)-7-methyl-2-morpholin-4-yl-9-[1-(3-trifluoromethylphenylamino)ethyl]-pyrido[1,2-a]pyrimidin-4-one], the IC50 in experiment [1] is 10 µM; in experiment [2] it was 0.075 µM; in experiment [3], > 5 µM; in experiment [4], > 5 µM. In addition, in experiment [2], the “Ratio δ/β” value was 133.33.
With `Cc1cc(C(C)Nc2ccccn2)c2nc(N3CCOCC3)cc(=O)n2c1` (racemic) [TGX-295, (±)-7-methyl-2-morpholin-4-yl-9-[1-(2-pyridinylamino)ethyl]-pyrido[1,2-a]pyrimidin-4-one], the IC50 in experiment [1] was 2 µM; in experiment [2] it was 0.05 µM; in experiment [3], > 5 µM; in experiment [4] it was > 5 µM. Besides, in experiment [2], the “Ratio δ/β” value is on record as 40.00.
In the case of `COC[C@H]1OC(=O)c2coc3c2[C@@]1(C)C1=C(C3=O)[C@@H]2CCC(=O)[C@@]2(C)C[C@H]1OC(C)=O` [wortmannin, reference compound], in experiment [5], the “platelet responses to accelerated shear” value is given as “eliminates platelet responses to accelerated shear”.
